This passage reports IC50 results from patent publication US10968172B2, “USP30 inhibitors” (Mitobridge, Inc., priority 2017, dated 2021).

The test has as its target USP30 (Homo sapiens (Human), UniProt Q70CQ3). Kind of test: In vitro biochemical assay for USP30 enzyme (Ubiquitin-Rhodamine110 cleavage, fluorescence). To be noted: 20 nM USP30, 15 min pre-incubation, 100 nM Ub rhodamine substrate, 2 hrs at room temperature.

Chain of USP30 (Q70CQ3 whole entry): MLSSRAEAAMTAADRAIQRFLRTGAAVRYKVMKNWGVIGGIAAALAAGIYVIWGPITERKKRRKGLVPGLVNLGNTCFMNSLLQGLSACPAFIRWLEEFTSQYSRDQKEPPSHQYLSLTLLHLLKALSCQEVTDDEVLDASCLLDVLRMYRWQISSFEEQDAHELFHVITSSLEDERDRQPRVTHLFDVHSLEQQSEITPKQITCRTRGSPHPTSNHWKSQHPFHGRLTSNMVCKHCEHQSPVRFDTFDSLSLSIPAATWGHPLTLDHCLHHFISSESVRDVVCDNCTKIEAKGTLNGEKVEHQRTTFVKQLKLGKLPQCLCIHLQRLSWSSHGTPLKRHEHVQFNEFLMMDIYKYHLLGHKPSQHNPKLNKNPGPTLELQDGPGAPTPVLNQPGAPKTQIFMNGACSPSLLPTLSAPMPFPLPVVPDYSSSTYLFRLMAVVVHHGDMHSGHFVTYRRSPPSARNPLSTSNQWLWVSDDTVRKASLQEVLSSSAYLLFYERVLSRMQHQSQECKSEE

Compound `COc1ccc(C[C@H](NC(=O)c2cocn2)C(=O)Nc2ccc(S(=O)(=O)NC(C)(C)C)cc2)cc1` [Compound 19z, (S)-N-(1-((4-(N-(tert-butyl)sulfamoyl)phenyl)amino)-3-(4-methoxyphenyl)-1-oxopropan-2-yl)oxazole-4-carboxamide] registered an IC50 above 10 µM.
